Assays:
Carbonic anhydrase 9 = Carbonic anhydrase 9 (Homo sapiens, UniProt Q16790)
Description: Inhibition constant determined against catalytic domain of human cloned carbonic anhydrase IX

Carbonic anhydrase 4 = biological target: T1, Carbonic anhydrase 4 (Bos taurus, UniProt Q95323)
T1 sequence (Q95323 whole entry): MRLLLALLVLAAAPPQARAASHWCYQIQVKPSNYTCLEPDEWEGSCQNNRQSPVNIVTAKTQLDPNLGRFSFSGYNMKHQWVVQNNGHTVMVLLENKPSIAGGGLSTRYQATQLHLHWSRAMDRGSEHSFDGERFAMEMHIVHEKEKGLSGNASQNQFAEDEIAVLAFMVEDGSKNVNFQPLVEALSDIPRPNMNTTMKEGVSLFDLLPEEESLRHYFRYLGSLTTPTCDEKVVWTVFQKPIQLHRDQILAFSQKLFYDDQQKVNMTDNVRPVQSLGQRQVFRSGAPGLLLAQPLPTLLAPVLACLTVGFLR
Description: Inhibition constant against bovine Carbonic anhydrase IV, isolated from lung microsomes

Carbonic anhydrase 2 = Carbonic anhydrase 2 (Homo sapiens, UniProt P00918)
Description: Inhibition constant (Ki) against human cloned carbonic anhydrase II (CAH)

Carbonic anhydrase 1 = Carbonic anhydrase 1 (Homo sapiens, UniProt P00915)
Chain of Carbonic anhydrase 1 (P00915 whole entry): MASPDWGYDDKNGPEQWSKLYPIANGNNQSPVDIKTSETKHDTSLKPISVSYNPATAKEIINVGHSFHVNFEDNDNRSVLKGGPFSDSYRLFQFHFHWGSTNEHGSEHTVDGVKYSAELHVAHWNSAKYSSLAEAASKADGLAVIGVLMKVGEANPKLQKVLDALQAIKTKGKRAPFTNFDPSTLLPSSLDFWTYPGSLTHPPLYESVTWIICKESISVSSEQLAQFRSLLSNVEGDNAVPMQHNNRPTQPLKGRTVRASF
Description: Inhibition constant determined against human cloned carbonic anhydrase I

Structure (SMILES) | Ki (Carbonic anhydrase 9) [nM] | Ki (Carbonic anhydrase 4) [nM] | Ki (Carbonic anhydrase 2) [nM] | Ki (Carbonic anhydrase 1) [nM]
CC(=O)Nc1ccc(S(=O)(=O)Nc2nnc(S(N)(=O)=O)s2)cc1Br | 78 | 4.6 | 1.5 | 5
CC(=O)Nc1ccc(S(=O)(=O)Nc2nnc(S(N)(=O)=O)s2)cc1Cl | 71 | 4.2 | 1.3 | 5.4
CC(=O)Nc1ccc(S(=O)(=O)Nc2nnc(S(N)(=O)=O)s2)cc1F | 79 | 4 | 1.2 | 5.7
CC(=O)Nc1ccc(S(=O)(=O)Nc2nnc(S(N)(=O)=O)s2)cc1 | 75 | 8.2 | 3.1 | 10.2
Nc1c(Cl)cc(S(=O)(=O)Nc2nnc(S(N)(=O)=O)s2)cc1Cl | 24 | 1.9 | 0.5 | 1.1
Nc1c(F)cc(S(N)(=O)=O)cc1Br | 69 | 113 | 33 | 3900
CC(=O)Nc1ccc(S(=O)(=O)Nc2nnc(S(N)(=O)=O)s2)cc1I |  | 4.5 | 1.7 | 5.2
CC(=O)Nc1ccc(S(N)(=O)=O)cc1F | 213 | 105 | 29 | 4200
Nc1c(F)cc(S(=O)(=O)Nc2nnc(S(N)(=O)=O)s2)cc1Br | 27 | 1.9 | 0.2 | 1
Nc1ccc(S(=O)(=O)Nc2nnc(S(N)(=O)=O)s2)cc1I |  | 2.5 | 0.6 | 2.1
Nc1c(Cl)cc(S(=O)(=O)Nc2nnc(S(N)(=O)=O)s2)cc1Br |  | 2 | 0.6 | 1.3
Nc1c(Br)cc(S(N)(=O)=O)cc1Br | 68 | 175 |  | 
Nc1c(Cl)cc(S(=O)(=O)Nc2nnc(S(N)(=O)=O)s2)cc1I |  | 2.7 | 0.8 | 1.6
Nc1ccc(S(=O)(=O)Nc2nnc(S(N)(=O)=O)s2)cc1Cl | 46 | 2.4 | 0.6 | 2.5
CC(=O)Nc1ccc(S(N)(=O)=O)cc1Cl | 196 | 245 | 74 | 6250
Nc1c(F)cc(S(=O)(=O)Nc2nnc(S(N)(=O)=O)s2)cc1I | 21 | 2.1 | 0.3 | 1.7

Structure (SMILES) | Ki (Carbonic anhydrase 9) [nM] | Ki (Carbonic anhydrase 4) [nM] | Ki (Carbonic anhydrase 2) [nM] | Ki (Carbonic anhydrase 1) [nM]
Nc1c(Br)cc(S(N)(=O)=O)cc1I |  | 250 | 107 | 12500
Nc1c(Cl)cc(S(N)(=O)=O)cc1Br | 33 | 210 | 54 | 7600
CC(=O)Nc1ccc(S(N)(=O)=O)cc1I | 209 | 115 | 47 | 3300
Nc1c(I)cc(S(N)(=O)=O)cc1I |  | 280 |  | 14000
Nc1c(I)cc(S(=O)(=O)Nc2nnc(S(N)(=O)=O)s2)cc1I | 41 | 2.3 | 0.9 | 
Nc1c(Cl)cc(S(N)(=O)=O)cc1I | 63 | 200 | 61 | 7800
Nc1ccc(S(=O)(=O)Nc2nnc(S(N)(=O)=O)s2)cc1F | 46 | 2.5 | 0.8 | 3.1
Nc1c(Br)cc(S(=O)(=O)Nc2nnc(S(N)(=O)=O)s2)cc1Br | 39 | 1.7 | 0.5 | 1
CC(=O)Nc1ccc(S(N)(=O)=O)cc1Br | 203 | 58 | 25 | 3400
Nc1c(F)cc(S(N)(=O)=O)cc1I | 34 | 125 | 29 | 3700
Nc1c(Cl)cc(S(N)(=O)=O)cc1Cl | 27 | 165 | 50 | 7000
Nc1ccc(S(=O)(=O)Nc2nnc(S(N)(=O)=O)s2)cc1Br | 47 | 2.4 | 0.7 | 1.9
Nc1c(F)cc(S(N)(=O)=O)cc1Cl | 12 | 95 | 32 | 3800
Nc1c(F)cc(S(=O)(=O)Nc2nnc(S(N)(=O)=O)s2)cc1Cl | 40 | 2 |  | 1.4
Nc1c(Br)cc(S(=O)(=O)Nc2nnc(S(N)(=O)=O)s2)cc1I |  | 2.3 | 0.6 | 1.9

From ChEMBL document CHEMBL1144995, “Carbonic anhydrase inhibitors. Inhibition of tumor-associated isozyme IX by halogenosulfanilamide and halogenophenylaminobenzolamide derivatives” (J Med Chem, 2003)
